The NIST ThermoML archive (doi:10.1021/je900381r)
± gives the expanded uncertainty stated by the source.

Conditions: Crystal; DTA

O=c1cc(-c2ccc(O)c(O)c2)oc2cc(O)cc(O)c12 [5,7,3',4'-tetrahydroxyflavone]
Normal melting temperature: 337.43 ± 1 °C
